According to ChEMBL document CHEMBL1124438, “Analysis of the in vitro antiviral activity of certain ribonucleosides against parainfluenza virus using a novel computer aided receptor modeling procedure” (1989):

Experiments:
Type in all cases: functional
Human alphaherpesvirus 2 = assay: Virus rating of against herpes simplex virus type 2
Human respirovirus 3 = assay: Virus rating against parainfluenza virus type 3
Human rhinovirus 1A = assay: Virus rating against rhinovirus type 1A
Human adenovirus 2 = assay: Virus rating against adenovirus type 2

SMILES | Rating (Human alphaherpesvirus 2) | Rating (Human respirovirus 3) | Rating (Human rhinovirus 1A) | Rating (Human adenovirus 2)
CSc1ncnc2c1ccn2[C@@H]1O[C@H](CO)[C@@H](O)[C@H]1O | 0 | 0.9 | 0.6 | 0
O=C1N=CN=C2C([C@@H]3O[C@H](CO)[C@@H](O)[C@H]3O)=NNC12 (stereo not given in full) | 0 | 0.94 | 0.3 | 0
OC[C@H]1O[C@@H](C2=NNC3C(=S)N=CN=C23)[C@H](O)[C@@H]1O (stereo not given in full) | 0 | 1.1 | 0.9 | 1
CSc1ncnc2c([C@@H]3O[C@H](CO)[C@@H](O)[C@H]3O)n[nH]c12 | 0.3 | 1.35 | 0 | 0.8
COc1c([C@@H]2O[C@H](CO)[C@@H](O)[C@H]2O)nn(C)c1C(N)=O | 0.3 | 1.65 | 0 | 1
NC(=O)C1NN=C([C@@H]2O[C@H](CO)[C@@H](O)[C@H]2O)C1=O (stereo not given in full) | 1 | 1.65 | 0.6 | 0
NC(=O)c1ccnc([C@@H]2O[C@H](CO)[C@@H](O)[C@H]2O)n1 | 0 | 0.25 | 0 | 0
O=c1[nH]c(=O)c2[nH]nc([C@@H]3O[C@H](CO)[C@@H](O)[C@H]3O)c2[nH]1 | 0.12 | 0.68 | 0 | 0
Nc1[nH]c(=O)nc2c([C@@H]3O[C@H](CO)[C@@H](O)[C@H]3O)n[nH]c12 | 0.75 | 1.22 | 0 | 0
Cn1nc([C@@H]2O[C@H](CO)[C@@H](O)[C@H]2O)c2ncnc(N)c21 | 0.2 | 0.86 | 0 | 0
CN1C=NC(N)=C2NNC([C@@H]3O[C@H](CO)[C@@H](O)[C@H]3O)=C21 | 0 | 1.28 | 0 | 0
Cn1cnc2c([C@@H]3O[C@H](CO)[C@@H](O)[C@H]3O)nnc-2c1N | 0.88 | 1.16 | 0 | 0
Cn1nc([C@@H]2O[C@H](CO)[C@@H](O)[C@H]2O)c2nc(=O)[nH]c(N)c21 |  | 0.88 |  | 
Nc1cc2c(ncn2[C@@H]2O[C@H](CO)[C@@H](O)[C@H]2O)c(=O)[nH]1 | 1.06 | 0.8 | 1 | 0.2
CSc1ncnc2c1ncn2[C@@H]1O[C@H](CO)[C@@H](O)[C@H]1O | 1.25 | 2.2 | 0.8 | 0
OC[C@H]1O[C@@H](n2ccc3c(S)ncnc32)[C@H](O)[C@@H]1O |  | 1.15 |  | 
OC[C@H]1OC(n2ncc3c(S)ncnc32)[C@H](O)[C@@H]1O (stereo not given in full) | 0 | 0.7 | 0 | 0
CSc1ncnc2c1cnn2C1O[C@H](CO)[C@@H](O)[C@H]1O (stereo not given in full) | 0 | 1.05 | 0.6 | 0
Nc1nn(C2O[C@H](CO)[C@@H](O)[C@H]2O)c2nc[nH]c(=O)c12 (stereo not given in full) | 0 | 0.28 | 0 | 0
OC[C@H]1OC(n2cc3c(O)nc(Cl)nc3n2)[C@H](O)[C@@H]1O (stereo not given in full) | 0 | 0.25 | 0 | 0
Nc1nc(Cl)cc2c1ncn2C1O[C@H](CO)[C@@H](O)[C@H]1O (stereo not given in full) | 0 | 0.35 | 0 | 0
Nc1nc(Cl)nc2c1cnn2C1O[C@H](CO)[C@@H](O)[C@H]1O (stereo not given in full) | 0 | 0.15 | 0 | 0
NC(=O)c1cn(C2O[C@H](CO)[C@@H](O)[C@H]2O)[nH]c1=O (stereo not given in full) | 0 | 0.15 | 0 | 0
Nc1ncnc2c([C@@H]3O[C@H](CO)[C@@H](O)[C@H]3O)[nH]nc12 [FORMYCIN] | 0.2 | 1.4 | 0.1 | 0
O=c1[nH]cnc2c1ccn2[C@@H]1O[C@H](CO)[C@@H](O)[C@H]1O [IMMUNICILLIN H] |  | 0.08 | 0 | 0
NC(=O)c1ncn([C@@H]2O[C@H](CO)[C@@H](O)[C@H]2O)n1 [RIBAVIRIN] | 1.4 | 1.3 | 0.7 | 0.3
N=C(N)c1ncn([C@@H]2O[C@H](CO)[C@@H](O)[C@H]2O)n1 [TARIBAVIRIN] | 0 | 1.2 | 0.2 | 0
NC(=O)c1csc([C@@H]2O[C@H](CO)[C@@H](O)[C@H]2O)n1 [TIAZOFURIN] | 1.19 | 1.3 | 0 | 0.2
